Among the data in US20230159510A1, “NOVEL PRMT5 INHIBITORS” (AMGEN INC., priority 2020, published 2023) are IC50 values, retold here.

The subject of one experiment is HCT116 WT cells. Description: HCT116 proliferation assay, WT cells (CellTiter-Glo, 6 days). It counts as cell-based. The settings on record: Homo sapiens, HCT-116, 144 h, read-out: Prolif_HCT116-WT IC50. Here is the method:
(§1) HCT116 MTAP null and WT cells were seeded in 96-well tissue culture plates in RPMI 1640 media + 10% fetal bovine serum. Plates were incubated overnight at 37° C. and 5% CO2. Cells were then treated with a 8- or 9-point serial dilution of compound, using a top concentration of 1 or 10 µM, 1:3 serial dilution steps and, a DMSO-only control. Cells were incubated in the presence of drug for 6 days. Effects on cell viability were measured with the CellTiter-Glo® Luminescent Cell Viability Assay (Promega) per manufacturer’s recommendation. Assay plates were read on an EnVision™ Multilabel Reader using the Ultra-Sensitive luminescence module.

A further experiment deals with HCT116 MTAP null cells. Description: HCT116 proliferation assay, MTAP null cells (CellTiter-Glo, 6 days). It counts as cell-based. The note with it: 144 h, read-out: Protif_ HCT116-MTAP null IC50. Here is the method: as §1

Read-outs that look alike come from different tables or passages of the source.

Turning to `Cc1c(Br)c(N)nc2ncc(C(=O)N(Cc3ccc(C(F)(F)F)cn3)[C@H](C)c3ncccn3)cc12` [Example 743, (R)-7-amino-6-bromo-5-methyl-N-(1-(pyrimidin-2-yl)ethyl)-N-((5-(trifluoromethyl)pyridin-2-yl)methyl)-1,8-naphthyridine-3-carboxamide], the IC50 in the experiment with HCT116 WT cells came out at 694 nM; in the experiment on HCT116 MTAP null cells (HCT116-MTAP null), 54 nM.
On the same counts, the results for `C[C@H](c1ncn(C)n1)N(Cc1ccc(C(F)F)cn1)C(=O)c1ccc2nc(N)c(I)cc2c1` [Example 839, (R)-2-amino-N-((5-(difluoromethyl)pyridin-2-yl)methyl)-3-iodo-N-(1-(1-methyl-1H-1,2,4-triazol-3-yl)ethyl)quinoline-6-carboxamide] are 1990 nM and 57 nM.
In the case of `Cc1cc2cc(C(=O)N(Cc3ccc(C(F)(F)F)cn3)CC(C)C)c(O)cc2nc1N` [Example 835, 2-Amino-7-hydroxy-3-methyl-N-(2-methylpropyl)-N-((5-(trifluoromethyl)-2-pyridinyl)methyl)-6-quinolinecarboxamide], the concentration for half-maximal inhibition (IC50) with HCT116 WT cells was found to be 8010 nM; in the experiment with HCT116 MTAP null cells (HCT116-MTAP null), 448 nM.
As for `C[C@H](c1ncccn1)N(Cc1ccc(C(F)(F)F)nn1)C(=O)c1cnc2nc(N)c(I)cc2c1` [Example 808, (R)-7-amino-6-iodo-N-(1-(pyrimidin-2-yl)ethyl)-N-((6-(trifluoromethyl)pyridazin-3-yl)methyl)-1,8-naphthyridine-3-carboxamide], the figures for the concentration for half-maximal inhibition (IC50) in the experiment on HCT116 WT cells and with HCT116 MTAP null cells (HCT116-MTAP null) were 19900 nM and 454 nM, respectively.
For `Cc1cc2cc(C(=O)N(CCc3ccon3)Cc3ccc(C(F)(F)F)cn3)ccc2nc1N` [Example 585, 2-amino-N-(2-(isoxazol-3-yl)ethyl)-3-methyl-N-((5-(trifluoromethyl)pyridin-2-yl)methyl)quinoline-6-carboxamide], the values for the half-inhibitory concentration (IC50) with HCT116 WT cells and in the experiment with HCT116 MTAP null cells (HCT116-MTAP null) were 11000 nM and 580 nM, respectively.
In the case of `CC[C@H](c1ncccn1)N(Cc1ccc(C#N)cn1)C(=O)c1ccc2nc(N)c(Br)cc2c1` [Example 759, (R)-2-amino-3-bromo-N-((5-cyanopyridin-2-yl)methyl)-N-(1-(pyrimidin-2-yl)propyl)quinoline-6-carboxamide], the half-inhibitory concentration (IC50) is above 10000 nM in the experiment with HCT116 WT cells and 293 nM in the experiment on HCT116 MTAP null cells (HCT116-MTAP null).
The corresponding values for `Cc1nc(CN(C(=O)c2ccc3nc(N)c(Br)cc3c2)[C@H](C)c2ncccn2)ccc1C#N` [Example 796, (R)-2-amino-3-bromo-N-((5-cyano-6-methylpyridin-2-yl)methyl)-N-(1-(pyrimidin-2-yl)ethyl)quinoline-6-carboxamide] are above 10000 nM and 308 nM.
Regarding `C[C@H](c1ncccn1)N(Cc1ccc(OC(F)F)nn1)C(=O)c1ccc2nc(N)c(Br)cc2c1` [Example 746, (R)-2-amino-3-bromo-N-((6-(difluoromethoxy)pyridazin-3-yl)methyl)-N-(1-(pyrimidin-2-yl)ethyl)quinoline-6-carboxamide], the IC50 with HCT116 WT cells worked out at 7260 nM; in the experiment on HCT116 MTAP null cells (HCT116-MTAP null), 139 nM.
In the case of `COC[C@@H](C1CC1)N(Cc1ccc(C(F)(F)F)cn1)C(=O)c1ccc2nc(N)c(C)cc2c1` (single isomer, unassigned) [Example 809], the IC50 is 362 nM in the experiment on HCT116 WT cells and 15 nM in the experiment on HCT116 MTAP null cells (HCT116-MTAP null).
On the same counts, the results for `Cc1cc2cc(C(=O)N(Cc3ccc(C(F)(F)F)cn3)[C@@H]3COCC[C@H]3F)ccc2nc1N` (mixture of isomers) [Example 749, 2-amino-N-((3R,4R)-4-fluorotetrahydro-2H-pyran-3-yl)-3-methyl-N-((5-(trifluoromethyl)-2-pyridinyl)methyl)-6-quinolinecarboxamide and 2-amino-N-((3S,4S)-4-fluorotetrahydro-2H-pyran-3-yl)-3-methyl-N-((5-(trifluoromethyl)-2-pyridinyl)methyl)-6-quinolinecarboxamide] are 2150 nM and 95 nM.
Turning to `N#CC[C@@H](C1CC1)N(Cc1ccc(C#N)cn1)C(=O)c1ccc2nc(N)c(Br)cc2c1` [Example 776, (S)-2-amino-3-bromo-N-(2-cyano-1-cyclopropylethyl)-N-((5-cyanopyridin-2-yl)methyl)quinoline-6-carboxamide], the 50% inhibitory concentration (IC50) amounted to 7220 nM with HCT116 WT cells and 195 nM with HCT116 MTAP null cells (HCT116-MTAP null).
On to `Cc1cc2cc(C(=O)N(Cc3ccc(C(F)(F)F)cn3)[C@H](C)c3ncon3)ccc2nc1N` (single isomer, unassigned) [Example 818], for which the IC50 stood at 372 nM in the experiment on HCT116 WT cells and 24 nM with HCT116 MTAP null cells (HCT116-MTAP null).
In the case of `Cc1cc2cc(C(=O)N(Cc3ncccc3Cl)[C@H](C)c3ncccn3)c(F)cc2nc1N` (single isomer, unassigned) [Example 784], the half-inhibitory concentration (IC50) in the experiment with HCT116 WT cells turned out to be 4700 nM; in the experiment on HCT116 MTAP null cells (HCT116-MTAP null), 261 nM.
On the same counts, the results for `Cc1cc2cc(C(=O)N(Cc3ccc(C(F)(F)F)cn3)[C@@H]3CCOC[C@H]3F)ccc2nc1N` (single isomer, unassigned) [Example 781] are 3400 nM and 260 nM.
Regarding `[2H]C([2H])([2H])c1cc2cc(C(=O)N(Cc3ccc(C(F)(F)F)cn3)[C@H](C)c3ncccn3)ccc2nc1N` [Example 399, (R)-2-amino-3-(methyl-d3)-N-(1-(pyrimidin-2-yl)ethyl)-N-((5-(trifluoromethyl)pyridin-2-yl)methyl)quinoline-6-carboxamide], the IC50 came to 872 nM in the experiment on HCT116 WT cells and 36 nM in the experiment with HCT116 MTAP null cells.
`Cc1cc2cc(C(=O)N(Cc3cc4ccccc4cn3)C(C)c3ncccn3)ccc2nc1N` (stereo not shown) [Example 792, 2-amino-N-(isoquinolin-3-ylmethyl)-3-methyl-N-(1-(pyrimidin-2-yl)ethyl)quinoline-6-carboxamide]: the IC50 in the experiment on HCT116 WT cells was 3840 nM; with HCT116 MTAP null cells (HCT116-MTAP null), 119 nM.
Turning to `C[C@H](c1ncccn1)N(Cc1ccc(OCC(F)(F)F)nn1)C(=O)c1cnc2nc(N)c(Br)cc2c1` [Example 793, (R)-7-amino-6-bromo-N-(1-(pyrimidin-2-yl)ethyl)-N-((6-(2,2,2-trifluoroethoxy)pyridazin-3-yl)methyl)-1,8-naphthyridine-3-carboxamide], the concentration for half-maximal inhibition (IC50) in the experiment with HCT116 WT cells was above 10000 nM; in the experiment on HCT116 MTAP null cells (HCT116-MTAP null), 783 nM.
Turning to `C[C@H](c1cscn1)N(Cc1ccc(C(F)(F)F)nn1)C(=O)c1cnc2nc(N)c(Br)cc2c1` (single isomer, unassigned) [Example 787], the IC50 was 1740 nM in the experiment with HCT116 WT cells and 59 nM in the experiment with HCT116 MTAP null cells (HCT116-MTAP null).
As for `Cc1cc2cc(C(=O)N(Cc3ccc(C4CC4)nn3)[C@H](C)c3ncccn3)ccc2nc1N` [Example 761, (R)-2-amino-N-((6-cyclopropylpyridazin-3-yl)methyl)-3-methyl-N-(1-(pyrimidin-2-yl)ethyl)quinoline-6-carboxamide], the IC50 came to 1350 nM with HCT116 WT cells and 64 nM in the experiment with HCT116 MTAP null cells (HCT116-MTAP null).
Regarding `CC(c1cscn1)N(Cc1ccc(C(F)(F)F)nn1)C(=O)c1cnc2nc(N)c(Br)cc2c1` (stereo not shown) [Example 766, 7-amino-6-bromo-N-(1-(thiazol-4-yl)ethyl)-N-((6-(trifluoromethyl)pyridazin-3-yl)methyl)-1,8-naphthyridine-3-carboxamide], the results for the IC50 in the experiment on HCT116 WT cells and in the experiment on HCT116 MTAP null cells (HCT116-MTAP null) were 5900 nM and 161 nM, respectively.
Regarding `CC[C@H](c1ncccn1)N(Cc1ccc(C(F)(F)F)cn1)C(=O)c1cnc2nc(N)c(I)cc2c1` (single isomer, unassigned) [Example 788], the IC50 came out at 1590 nM in the experiment with HCT116 WT cells and 64 nM in the experiment on HCT116 MTAP null cells (HCT116-MTAP null).
In the case of `CO[C@@H]1COCC[C@H]1N(Cc1ccc(C(F)(F)F)cn1)C(=O)c1ccc2nc(N)c(Br)cc2c1` [Example 829, 2-amino-3-bromo-N-((3S,4R)-3-methoxytetrahydro-2H-pyran-4-yl)-N-((5-(trifluoromethyl)pyridin-2-yl)methyl) quinoline-6-carboxamide], the IC50 in the experiment on HCT116 WT cells was above 10000 nM; in the experiment with HCT116 MTAP null cells (HCT116-MTAP null), 840 nM.
`Cc1cc2cc(C(=O)N(Cc3ccc(C(F)(F)F)cn3)Cc3ncccc3F)c(Cl)cc2nc1N` [Example 804, 2-amino-7-chloro-N-((3-fluoro-2-pyridinyl)methyl)-3-methyl-N-((5-(trifluoromethyl)-2-pyridinyl)methyl)-6-quinolinecarboxamide]: the values for the IC50 in the experiment with HCT116 WT cells and in the experiment on HCT116 MTAP null cells (HCT116-MTAP null) were 5770 nM and 226 nM, respectively.
On the same counts, the results for `CCOc1ccc(CN(C(=O)c2ccc3nc(N)c(Br)cc3c2)[C@H](C)c2ncccn2)nn1` [Example 729, 2-amino-3-bromo-N-((6-ethoxy-3-pyridazinyl)methyl)-N-((1R)-1-(2-pyrimidinyl)ethyl)-6-quinolinecarboxamide] are 6900 nM and 114 nM.
`COc1ccc(CN(C(=O)c2ccc3nc(N)c(C)cc3c2)[C@@H](c2ncccn2)C2CC2)nn1` (single isomer, unassigned) [Example 775]: the IC50 in the experiment with HCT116 WT cells was found to be 1680 nM; in the experiment with HCT116 MTAP null cells (HCT116-MTAP null), 50 nM.
On the same counts, the results for `Cc1cc2cc(C(=O)N(Cc3ccc(C(F)(F)F)cn3)[C@@H]3CCC[C@H]3C#N)ccc2nc1N` (single isomer, unassigned) [Example 812] are 1040 nM and 43 nM.
As to `Cc1cc2cc(C(=O)N(Cc3ccc4[nH]c(=O)[nH]c4c3)Cc3ccnc4[nH]ccc34)ccc2nc1N` [Example 589, N-((1H-pyrrolo[2,3-b]pyridin-4-yl)methyl)-2-amino-3-methyl-N-((2-oxo-2,3-dihydro-1H-benzo [d]imidazol-5-yl)methyl)quinoline-6-carboxamide], the results for the half-inhibitory concentration (IC50) in the experiment with HCT116 WT cells and with HCT116 MTAP null cells (HCT116-MTAP null) were above 1000 nM and 549 nM, respectively.
`C#CCCCN(Cc1ccc(C(F)(F)F)cn1)C(=O)c1ccc2nc(N)c(C)cc2c1` [Example 692, 2-amino-3-methyl-N-pent-4-ynyl-N-[[5-(trifluoromethyl)-2-pyridyl]methyl] quinoline-6-carboxamide]: in the experiment on HCT116 MTAP null cells (HCT116-MTAP null), the concentration for half-maximal inhibition (IC50) is above 1000 nM.
